According to publication PMC11325555, “Interaction of Bisphenol A and Its Analogs with Estrogen and Androgen Receptor from Atlantic Cod (Gadus morhua)” (Environmental Science & Technology, 2024):

Tested on: COS-7 cells
Test: Cytotoxicity toward COS-7 cells (resazurin and CFDA-AM assays)
Conditions: antiandrogenic reporter assay conditions (with testosterone); highest concentration used; 24 h
Source text: The cytotoxicity of the test compounds toward COS-7 cells was monitored by measuring the metabolic activity and membrane integrity through the conversion of resazurin and 5-carboxyfluorescein diacetate acetoxymethyl ester (CFDA-AM), respectively, as described previously by Pérez-Albaladejo et al.[54] […]
used as a negative control.
Figure S2. Assessing metabolic activity (resazurin) and cell membrane integrity (CFDA-AM) in COS-7 cells after BP exposures. COS-7 cells were exposed to three concentrations of each BP, as well as three concentrations […]
exposed at 37 °C and 5 % CO2 for 24 hours. Cytotoxicity is indicated by a reduction in the fluorescent signal (denoted as % Cell survival) relative to the solvent control (DMSO, dotted line) adjusted to 100 %. A reduction in cell viability exceeding 20 % is generally regarded as cytotoxic (indicated with a red dotted line) (ISO, I. 2009.
10993–5: 2009 Biological evaluation of medical devices—part 5: tests for in vitro cytotoxicity. International Organization for Standardization, Geneva.).
(1 picture or pasted object on this page, not shown here)

Compound: CC(C)(c1ccc(OCC2CO2)cc1)c1ccc(OCC2CO2)cc1 (stereo not shown) [BADGE]
- cytotoxic concentration in COS-7 cells: 50 µM
